US7355047B2, “Substituted quinolone carboxylic acids, their derivatives, site of action, and uses thereof” (The Regents of the University of California, priority 2002, dated 2008)

Tests used:
[1] = biological target: GABAA receptor complex (GRC); test: [35S]TBPS binding assay, rat cortex; details: 2 nM [35S]TBPS, rat cortex; for IC50: read-out: IC50 (inhibition of [35S]TBPS binding); for % Inhibition of 2 nM TBPS in Rat Cortex at 10 μM: 10 μM compound, plain numbers = inhibition
[2] = tested on: GABAA receptor complex (GRC); test: [35S]TBPS binding, rat cerebellum; details: 2 nM [35S]TBPS, 30 μM furosemide, FIG. 14
[3] = tested on: GABAA receptor complex (GRC); test: [35S]TBPS binding dissociation, mouse forebrain; details: 2 nM [35S]TBPS, initiated by 10 μM compound 3, 10 μM mefenamic acid, FIG. 13

## CCn1cc(C(=O)O)c(=O)c2cc(NCC(C)c3ccccc3)c(Cl)cc21 (stereo not drawn)
[1]
  IC50: 4000 nM
  % Inhibition of 2 nM TBPS in Rat Cortex at 10 μM: 65%

## CCn1cc(C(=O)O)c(=O)c2cc(NC(C)CCc3ccccc3)c(Cl)cc21 (stereo not drawn)
[1]
  IC50: 2000 nM
  % Inhibition of 2 nM TBPS in Rat Cortex at 10 μM: 84%

## CCCNC(=O)c1cn(CC)c2cc(Cl)c(NC3CCCc4ccccc43)cc2c1=O (stereo not drawn)
[1]
  IC50: 1500 nM
  % Inhibition of 2 nM TBPS in Rat Cortex at 10 μM: 86%

## CCOC(=O)c1cn(CC)c2cc(Cl)c(NC3CCCc4ccccc43)cc2c1=O (stereo not drawn)
[1]
  IC50: 880 nM

## CN1C(=O)CN=C(c2ccc(Cl)cc2)c2cc(Cl)ccc21 [4′-chlorodiazepam, reference compound]
[1]; 0.3, 1 and 30 μM Ro5-4864, FIG. 11
  effect on [35S]TBPS binding in absence or presence of Ro5-4864 (4′-chlorodiazepam): inability of 4′-chlorodiazepam to produce a dose-dependent rightward parallel shift

## C[C@H](O)[C@H]1CC[C@H]2[C@@H]3CC[C@H]4C[C@H](O)CC[C@]4(C)[C@H]3CC[C@]12C [5α,20α-diol, 5α-pregnan-3α,20α-diol, reference compound]
[1]; 10 μM compound 3 or 100 nM 3α,5α-P, FIG. 8
  interaction with 5α,20α-diol inhibition of [35S]TBPS binding (neurosteroid site): antagonize the effect of 3α,5α-P

## CCn1cc(C(=O)O)c(=O)c2cc(NC3CCCc4ccccc43)c(Cl)cc21 (stereo not drawn) [drawing 15]
[1]
  IC50: 2700 nM
  % Inhibition of 2 nM TBPS in Rat Cortex at 10 μM: 70%

## NS(=O)(=O)c1cc(C(=O)O)c(NCc2ccco2)cc1Cl [furosemide, reference compound]
[2]
  effect on [35S]TBPS binding in absence or presence of furosemide: inability of furosemide to produce a dose-dependent rightward parallel shift

## Cc1cccc(Nc2ccccc2C(=O)O)c1C [mefenamic acid, reference compound]
[3]
  dissociation of [35S]TBPS binding in absence or presence of mefenamic acid: accelerate the dissociation of [^35S]TBPS binding

## CCn1cc(C(=O)O)c(=O)c2cc(F)c(N3CCNCC3)cc21 [norfloxacin, reference compound]
[1]; 30 μM and 100 μM norfloxacin, FIG. 9
  effect on [35S]TBPS binding in absence or presence of norfloxacin: inability of norfloxacin to produce a dose-dependent rightward parallel shift

## CCCC(C)C1(CC)C(=O)NC(=O)NC1=O (stereo not drawn) [pentobarbital, reference compound]
[1]; initiated by 10 μM compound 3, 30 μM pentobarbital, FIG. 10
  dissociation of [35S]TBPS binding in absence or presence of pentobarbital: accelerate the dissociation of [^35S]TBPS binding
